Experimental data reported in patent publication US20110269790A1, “NOVEL THIENOPYRIDINES AS PHARMACOLOGICALLY ACTIVE AGENTS” (priority 2009, published 2011).

What was measured:
Wistar rats [1] = test: Cotton pellet granuloma (sub acute model); assay type: in vivo, rat; details: BN compounds 100 mg/kg, Indomethacin 5 mg/kg, daily for 7 days
Protocol: Wistar rats weighing between 180-220 gms were anaesthetized with ether. The skin at their back was shaved and disinfected with 70% alcohol according to D'Arcy et al., 1960). An incision was made in the lumbar region. Using a blunt forceps subcutaneous tunnel was formed and a sterilized cotton pellet was placed on both sides in scapular region. Standard 20 mg cotton pellets was weighed and sterilized for the study. Rats were grouped into 5 groups of 6 animals each. […] On 8th day rats in all groups were sacrificed with anesthetic ether. Pellets were removed and kept overnight for incubation at 37° C. Then pellets were dried at 60° C. until they reach constant weight. The wet weight of pellets was also recorded after sacrificing. The average weights of pellets of control group and other treated groups were calculated. The percent change of granuloma weight was calculated for all the test groups comparing with control group.

TNF-α = TNF-α in rat paw tissue, FCA model (ELISA); assay type: in vivo; details: termination day
Protocol: (§1) Group I—Normal Control; Group II—Arthritic control; Group III—Arthritic rats administered with Synthetic compound BN-4; Group IV—arthritic rats administered with compound BN-14; Group V—arthritic rats administered with BN-16; Group VI—arthritic rats administered with standard drug indomethacin. Administration of test compounds and indomethacin started on the same day of adjuvant injection at the dose of 100 and 2.5 mg/kg respectively. The test and indomethacin doses continued up to 21 days in FCA induced model and 24 days in collagen induced model. During the study period the paw volumes were measured on 5th, 12th, 18th and 21 st days and the weight of the animals was also recorded at different time intervals. At each time point the percentage of inhibition of paw volume was calculated with reference to mean paw volume of control group In FCA model, animals were sacrificed on 21st day by cervical dislocation. Before sacrificing the animals, blood was collected and used for estimation of total leukocyte count, TNF-α and IL-1β.
In FCA induced study paw tissues were collected on termination day and estimated TNF-α and IL-1β levels for all the groups by ELISA method.

Wistar rats [2] = test: Antidiabetic activity by starch loaded model; assay type: in vivo, rat; details: test compounds 100 mg/kg, Acarbose 10 mg/kg oral
Text: Experimental Animals—Wistar rats of either sex were used for the present study. Animals selected for use in the study were of uniform age and body weight. A minimum of 40 rats, from which eventually 20 rats were selected. Their body weights were in the range of 150-180 gm. The health status of the animals was ascertained by a veterinary surgeon. […] Animals were acclimatized for at least two weeks prior to start of the study. The animals were provided with pellet diet manufactured by NIN, HYDERABAD, India and drinking water adlibitum.
Compound Preparation The required quantity of the synthetic compounds were weighed and made suspension with gum acacia (2%). The test compounds were administered to all rats by per oral route. Acarbose suspension was also prepared in gum acasia suspension and given by oral route.
Antidiabetic activity by Starch model: The method of Rao et al., 2009;Tiwari et al was employed. Animals were fasted over night (12 hrs). Basal blood glucose levels were estimated for all the animals prior to dosing in test and standard groups. This was designated as “0” min reading. […] After test compounds administration animals in all three groups received Starch aqueous solution (2 gm/kg body weight). Blood glucose levels were monitored at 30, 60, 90 and 120 min after the administration of Starch in all the three groups. The percentage of increase in, blood glucose levels was calculated with respect to the control group at each time point.

Wistar rats [3] = test: Freund's complete adjuvant (FCA) induced arthritis; assay type: in vivo, rat; details: BN compounds 100 mg/kg
Protocol: Induction of Arthritis: Arthritis was induced by injecting Freund's complete adjuvant (FCA. Required quantity of FCA was weighed and suspension made with paraffin oil (DIFCO Laboratories) and administered at dose of 0.5 mg/rat in subplantar region of the right hind paw. After 7 days, a booster injection was given to all animals to hind paws.
Experimental Design Animals were divided into 6 groups of 6 rats each and were designated as:
as §1
Clinical Assessment of Adjuvant arthritis: Rats were examined for visual appearance of arthritis and the lesion of erythema and inflammation of periarticular tissues on 14th day, 18th day and on 21st day. Arthritis scoring scale as follows:
2=Mild swelling and erythema of the limb 3=Gross swelling and erythema of the limb 4=Gross deformity and inability to use the limb
The arthritis score of each rat was the sum of the scores of both hind limbs and maximum score was being 8 for each rat.

IL-1β = IL-1β assay in murine macrophage cell line; assay type: cell-based, mouse; details: 50, 25, 12.5 μg/ml with LPS
Protocol: Cell Culture and Treatment: The RAW 264.7 (mouse macrophages, national center for cellular sciences) cells were grown in plastic T-25 culture flask in Dulbeccos modified eagles medium (DMEM) without phenol red supplemented with 10% heat activated serum (heating at 57° C. for 30 minutes, 100 μg per ml penicillin, 200 μg per ml streptomycin, 2 mmol L-glutamine, 1% antibiotic/Anti mycotic solution (GIBCO/SRL) under 5% co2 with 85% relative humidity at 37° C. After 2-3 days cells were removed from the culture flask by tripsinizing the cells with Trypsin EDTA solution. Cell count and viability was performed using a standard Trypan blue dye exclusion method. The cell concentration was adjusted to 1×10^5 cells per ml in each well with the same media in the 12 well plates. After 24 hrs incubation the media was removed from each well replaced with a fresh one containing different concentrations (50 μg, 25 μg, 12.5 μg) of the synthetic compounds BN-4, BN-14 and BN-16 along with 10 μg/ml LPS, where as normal control (PBS) and positive controls (Dexa, Roli) LPS (10 μg/ml), were added. 200 μl of media from each well was collected at 6 hrs for the estimation of TNF-α and after 24 hrs for Nitric Oxide respectively. The adherent cells, which remained after removing the media was subjected to […] for determining the cytotoxicity of compounds at selected concentrations
To determine the mechanism of action all test compounds were screened for invitro anti-inflammatory methods, which include TNF-a and IL-1b and Nitric Oxide. […] TNF-a is a pleiotropic cytokine, which plays a critical role in both acute and chronic inflammation (Holtzmann et al., 2002). Several inflammagens have the ability of inducing the synthesis of TNF-a. Formation of a number of small molecular mediators of inflammation is linked with TNF-a and contributes to the range of mediators that critically control inflammation. TNF-a facilitates inflammatory cell infiltration by promoting the adhesion of neutrophils and lymphocytes to endothelial cells (Dinarello, 1997).

[4] = indomethacin 2.5 mg/kg daily, in mL (unit assumed)

Nc1c2c(nc3sc4c(c13)CCC4)CCCC2 [BN-14, 2,3,6,7,8,9-Hexahydro-1H-cyclopenta[4,5]thieno[2,3-b]quinolin-10-amine]
% Inhibition (granuloma dry weight) (Wistar rats [1]): 25.48 ± 1.89 % | % Inhibition (granuloma wet weight) (Wistar rats [1]): 20.21 ± 0.58 % | Granuloma Dry Weight (Wistar rats [1]): 86.75 ± 2.20 mg | Granuloma Wet Weight (Wistar rats [1]): 374.42 ± 4.69 mg | % Inhibition (TNF-α) (TNF-α): 38.03 ± 9.73% | % Increase in glucose, 30 min (Wistar rats [2]; 30 min after starch): 37.65% | Blood glucose level, 30 min (Wistar rats [2]; 30 min after starch, in mg/dL (unit assumed)): 103.83 | % Increase in glucose, 60 min (Wistar rats [2]; 60 min after starch): 36.02% | Blood glucose level, 60 min (Wistar rats [2]; 60 min after starch, in mg/dL (unit assumed)): 102.80 | % Increase in glucose, 90 min (Wistar rats [2]; 90 min after starch): 45.00% | Blood glucose level, 90 min (Wistar rats [2]; 90 min after starch, in mg/dL (unit assumed)): 109.33 | % Increase in glucose, 120 min (Wistar rats [2]; 120 min after starch): 32.21% | Blood glucose level, 120 min (Wistar rats [2]; 120 min after starch, in mg/dL (unit assumed)): 99.83 | Blood glucose level, 0 min (Wistar rats [2]; basal, prior to dosing, starch 2 gm/kg, in mg/dL (unit assumed)): 75.5 | % Of inhibition, 5th Day (Wistar rats [3]; indomethacin 2.5 mg/kg daily): 19.47 ± 1.38 % | % Of inhibition, 12th Day (Wistar rats [3]; indomethacin 2.5 mg/kg daily): 37.90 ± 4.12 % | Body weight index, 21st DAY (Wistar rats [3]; indomethacin 2.5 mg/kg daily, FCA study): 201.51 ± 6.61 | Paw volume, 5th Day (Wistar rats [3]; [4]): 1.92 ± 0.03 | Paw volume, 12th Day (Wistar rats [3]; [4]): 1.54 ± 0.10 | Paw volume, 18th Day (Wistar rats [3]; [4]): 1.51 ± 0.14 | Paw volume, 21st Day (Wistar rats [3]; [4]): 1.40 ± 0.02 | Body weight index, 1st DAY (Wistar rats [3]; indomethacin 2.5 mg/kg, FCA study): 158.02 ± 2.51 | Total WBC count (Wistar rats [3]; termination day, FCA model, Indomethacin 2.5 mg/kg): 19.70±0.66 | Production of IL-1β from murine macrophage cell line (IL-1β): inhibitory effect
